Common to all, as to assay type: cell-based
Assay [1] has as its target T1, IR (NIH-3T3 cells over expressing human IGF-1R or IR) (Homo sapiens, UniProt P06213).
T1 construct: expressed in transfected cells; host or cells: NIH-3T3 (mouse fibroblasts)
Briefly: IR cellular autophosphorylation (DELFIA). The settings on record: NIH-3T3 cells over expressing IR, insulin stimulated. The gist of the method: (§1)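 Readout: DELFIA on lysates, with anti-IGF-1R or anti-IR capture and europium anti-pTyr detection, expressed relative to 100% ligand-stimulated signal. Human IGF-1R- or IR-overexpressing NIH-3T3 cells got compound (1.5 nM–30 uM) for 2 h before 15 min IGF-1 (30 ng/mL) or insulin (3 ug/mL).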

The test system of the next assay is COLO205 (colon). Description: Inhibition of cell proliferation, CellTiter-Glo, COLO205. The settings on record: Homo sapiens, COLO 205, 72 h. In short, it runs like this: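 Exponentially growing COLO205 cells in medium with 10% FBS were plated below 2000 cells/well at 37 °C, 5% CO2. Untreated wells served as controls.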
Assay [2] concerns NCI-H929 (multiple myeloma). Description: Inhibition of cell proliferation, CellTiter-Glo, NCI-H929. To be noted: Homo sapiens, 72 h. As to the method: C. Inhibition of Cell Proliferation
Cell proliferation was measured by either CellTiter-Glo (measures cellular ATP level as a surrogate for total cell number) or by InCell analyzer (counts number of nuclei as a measure of cell number). For CellTiter-Glo assay, exponentially growing cell lines of different tumor origins, cultured in appropriate media containing 10% fetal bovine serum at 37° C. in a 5% CO2 incubator, were plated at low density (less than 2000 cells/well) in 96-well plates. Twenty four hours post-plating, cells were treated with different concentrations of test compounds ranging from 30 uM to 1.5 nM. Several wells were left untreated as a control. Seventy two hours post-treatment, cell numbers were determined using 50-100 ul per well of CellTiter-Glo (Promega #G7573). Plates were incubated at 37° C. for 30 minutes and the chemiluminescent signal was read on the Victor V or Envison 2100 reader. […]
(In general: ATP-based viability assays read luminescence as a measure of living cells.)

Assay [3] deals with T2, human IGF-1R (NIH-3T3 cells over expressing human IGF-1R) (Homo sapiens, UniProt P08069).
T2 construct: expressed in transfected cells; host or cells: NIH-3T3 (mouse fibroblasts)
Description: IGF-1R cellular autophosphorylation (DELFIA). The settings on record: IGF-1 stimulated. The gist of the method:
as §1

T1 sequence (P06213 28-1382): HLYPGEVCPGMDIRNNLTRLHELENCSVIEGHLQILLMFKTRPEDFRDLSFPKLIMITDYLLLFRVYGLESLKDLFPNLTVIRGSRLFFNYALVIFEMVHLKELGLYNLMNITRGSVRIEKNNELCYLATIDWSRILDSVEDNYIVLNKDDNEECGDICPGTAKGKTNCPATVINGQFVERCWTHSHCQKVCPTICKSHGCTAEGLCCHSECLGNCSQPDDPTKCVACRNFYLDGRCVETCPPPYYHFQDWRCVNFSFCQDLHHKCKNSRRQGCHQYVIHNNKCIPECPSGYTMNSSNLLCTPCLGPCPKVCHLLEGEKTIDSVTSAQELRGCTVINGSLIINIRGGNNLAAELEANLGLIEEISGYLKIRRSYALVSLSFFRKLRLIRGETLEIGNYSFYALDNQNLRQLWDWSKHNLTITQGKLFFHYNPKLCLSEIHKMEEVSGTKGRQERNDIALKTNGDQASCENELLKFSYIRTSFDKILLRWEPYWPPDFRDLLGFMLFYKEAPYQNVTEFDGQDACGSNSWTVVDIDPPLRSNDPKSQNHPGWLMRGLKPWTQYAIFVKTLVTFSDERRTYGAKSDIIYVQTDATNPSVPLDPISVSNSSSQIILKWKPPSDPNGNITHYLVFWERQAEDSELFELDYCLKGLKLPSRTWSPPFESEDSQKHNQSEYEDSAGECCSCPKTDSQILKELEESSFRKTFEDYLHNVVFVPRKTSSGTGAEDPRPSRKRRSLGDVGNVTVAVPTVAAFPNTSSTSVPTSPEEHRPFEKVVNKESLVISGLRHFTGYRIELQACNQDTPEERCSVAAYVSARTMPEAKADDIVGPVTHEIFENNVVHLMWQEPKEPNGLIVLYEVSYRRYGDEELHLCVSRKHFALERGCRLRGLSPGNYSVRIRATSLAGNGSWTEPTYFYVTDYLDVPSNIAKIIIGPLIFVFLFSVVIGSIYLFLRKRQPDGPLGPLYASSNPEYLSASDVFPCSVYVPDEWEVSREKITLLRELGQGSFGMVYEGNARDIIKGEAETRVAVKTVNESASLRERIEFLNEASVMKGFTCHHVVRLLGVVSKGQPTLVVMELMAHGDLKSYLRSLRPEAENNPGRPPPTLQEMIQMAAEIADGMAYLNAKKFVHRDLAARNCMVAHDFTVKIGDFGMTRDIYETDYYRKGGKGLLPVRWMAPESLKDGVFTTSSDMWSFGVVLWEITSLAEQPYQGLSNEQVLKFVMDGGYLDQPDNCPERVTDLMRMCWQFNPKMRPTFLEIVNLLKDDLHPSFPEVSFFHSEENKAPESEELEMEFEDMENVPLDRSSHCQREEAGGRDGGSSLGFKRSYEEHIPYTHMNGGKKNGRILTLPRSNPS
T2 sequence (P08069 31-1367): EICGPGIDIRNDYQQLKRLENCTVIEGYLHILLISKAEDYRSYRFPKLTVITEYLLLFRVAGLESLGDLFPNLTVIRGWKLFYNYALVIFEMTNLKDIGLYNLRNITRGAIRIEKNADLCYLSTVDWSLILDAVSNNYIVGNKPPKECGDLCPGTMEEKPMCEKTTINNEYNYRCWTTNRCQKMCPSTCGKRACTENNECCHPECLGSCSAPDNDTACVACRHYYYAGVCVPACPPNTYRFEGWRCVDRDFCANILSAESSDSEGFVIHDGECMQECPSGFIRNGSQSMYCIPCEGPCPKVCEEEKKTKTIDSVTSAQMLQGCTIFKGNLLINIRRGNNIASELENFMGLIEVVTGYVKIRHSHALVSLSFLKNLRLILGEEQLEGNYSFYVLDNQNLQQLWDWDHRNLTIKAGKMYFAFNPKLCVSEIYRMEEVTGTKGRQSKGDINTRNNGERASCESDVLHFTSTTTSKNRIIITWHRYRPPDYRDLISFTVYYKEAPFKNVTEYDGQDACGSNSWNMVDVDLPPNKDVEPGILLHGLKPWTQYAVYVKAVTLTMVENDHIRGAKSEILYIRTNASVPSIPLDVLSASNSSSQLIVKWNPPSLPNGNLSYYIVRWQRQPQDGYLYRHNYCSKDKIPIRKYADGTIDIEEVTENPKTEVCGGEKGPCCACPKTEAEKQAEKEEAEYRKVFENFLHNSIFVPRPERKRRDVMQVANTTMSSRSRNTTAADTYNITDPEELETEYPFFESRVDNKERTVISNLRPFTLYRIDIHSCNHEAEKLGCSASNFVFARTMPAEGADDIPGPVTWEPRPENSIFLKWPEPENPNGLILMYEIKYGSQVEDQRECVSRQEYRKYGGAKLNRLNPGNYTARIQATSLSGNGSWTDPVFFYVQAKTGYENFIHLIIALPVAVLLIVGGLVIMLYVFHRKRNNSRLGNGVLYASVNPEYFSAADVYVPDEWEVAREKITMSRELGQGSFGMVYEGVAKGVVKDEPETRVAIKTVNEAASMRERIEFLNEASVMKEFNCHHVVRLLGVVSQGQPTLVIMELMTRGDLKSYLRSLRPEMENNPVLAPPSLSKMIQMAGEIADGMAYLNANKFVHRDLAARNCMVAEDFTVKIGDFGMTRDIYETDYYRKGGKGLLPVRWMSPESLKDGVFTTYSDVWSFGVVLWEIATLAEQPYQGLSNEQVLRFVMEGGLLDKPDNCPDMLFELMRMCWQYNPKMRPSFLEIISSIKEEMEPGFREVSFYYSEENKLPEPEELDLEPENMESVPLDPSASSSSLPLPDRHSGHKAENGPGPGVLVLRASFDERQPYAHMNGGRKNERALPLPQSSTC

Usually IC50 stands for the midpoint of a concentration-inhibition curve. High values mean weaker potency, low ones greater potency. For the compound `COc1cc(N2CCC(CCS(C)(=O)=O)CC2)c(C)cc1Nc1nccc(-c2c(-c3ccc(OC)c(C(=O)Nc4c(F)cccc4F)c3)nc3ccccn23)n1` [Example 230, N-(2,6-difluorophenyl)-5-(3-{2-[(5-methyl-2-(methyloxy)-4-{4-[2-(methylsulfonyl)ethyl]-1-piperidinyl}phenyl)amino]-4-pyrimidinyl}imidazo[1,2-a]pyridin-2-yl)-2-(methyloxy)benzamide], the IC50 in assay [1] is below 100 nM; in the assay on COLO205 (colon), below 250 nM; in assay [2], below 250 nM; in assay [3] it was below 100 nM.
For the compound `CCOc1ccc(-c2nc3ccccn3c2-c2ccnc(Nc3ccc(N4CCC(N5CCC(CCS(C)(=O)=O)CC5)CC4)cc3OC)n2)cc1C(=O)Nc1c(F)cccc1F` [Example 103, N-(2,6-difluorophenyl)-2-(ethyloxy)-5-(3-{2-[(2-(methyloxy)-4-{4-[2-(methylsulfonyl)ethyl]-1,4′-bipiperidin-1′-yl}phenyl)amino]-4-pyrimidinyl}imidazo[1,2-a]pyridin-2-yl)benzamide], the IC50 in assay [1] is below 100 nM; with COLO205 (colon) it was 250 to 1000 nM; in assay [2], below 250 nM; in assay [3] it was below 100 nM.
Turning to `COc1cc(N2CCN(CCS(C)(=O)=O)CC2)c(Cl)cc1Nc1nccc(-c2c(-c3ccc(OC)c(C(=O)Nc4c(F)cccc4F)c3)nc3ccccn23)n1` [Example 213, 5-(3-{2-[(5-chloro-2-(methyloxy)-4-{4-[2-(methylsulfonyl)ethyl]-1-piperazinyl}phenyl)amino]-4-pyrimidinyl}imidazo[1,2-a]pyridin-2-yl)-N-(2,6-difluorophenyl)-2-(methyloxy)benzamide], the half-inhibitory concentration (IC50) is below 100 nM in assay [1], below 250 nM in the assay with COLO205 (colon), below 250 nM in assay [2] and below 100 nM in assay [3].
Take `COc1cc(N2CCC(C3CCN(CCS(C)(=O)=O)CC3)CC2)ccc1Nc1nccc(-c2c(-c3ccc(OC)c(C(=O)Nc4c(F)cccc4F)c3)nc3ccccn23)n1` [Example 98, N-(2,6-difluorophenyl)-2-(methyloxy)-5-(3-{2-[(2-(methyloxy)-4-{1′-[2-(methylsulfonyl)ethyl]-4,4′-bipiperidin-1-yl}phenyl)amino]-4-pyrimidinyl}imidazo[1,2-a]pyridin-2-yl)benzamide]: the concentration for half-maximal inhibition (IC50) in assay [1] is below 100 nM; with COLO205 (colon), 250 to 1000 nM; in assay [2] it was 250 to 1000 nM; in assay [3], below 100 nM.
Consider `CCOc1cc(C2CCN(CCS(C)(=O)=O)CC2)ccc1Nc1nccc(-c2c(-c3ccc(OCC)c(C(=O)Nc4c(F)cccc4F)c3)nc3ccccn23)n1` [Example 185, N-(2,6-difluorophenyl)-2-(ethyloxy)-5-(3-{2-[(2-(ethyloxy)-4-{1-[2-(methylsulfonyl)ethyl]-4-piperidinyl}phenyl)amino]-4-pyrimidinyl}imidazo[1,2-a]pyridin-2-yl)benzamide], for which the IC50 is below 100 nM in assay [1], below 250 nM with COLO205 (colon), below 250 nM in assay [2] and below 100 nM in assay [3].
As to `COc1cc(C2CCN(CCS(C)(=O)=O)CC2)c(C)cc1Nc1nccc(-c2c(-c3cccc(C(=O)Nc4c(F)cccc4F)c3)nc3ccccn23)n1` [Example 165, N-(2,6-difluorophenyl)-3-(3-{2-[(5-methyl-2-(methyloxy)-4-{1-[2-(methylsulfonyl)ethyl]-4-piperidinyl}phenyl)amino]-4-pyrimidinyl}imidazo[1,2-a]pyridin-2-yl)benzamide], the IC50 is below 100 nM in assay [1], 250 to 1000 nM with COLO205 (colon), below 250 nM in assay [2] and below 100 nM in assay [3].
For `COc1cc(N2CCC(N3CCN(S(C)(=O)=O)CC3)CC2)ccc1Nc1nccc(-c2c(-c3cccc(C(=O)Nc4c(F)cccc4F)c3)nc3cc(F)ccn23)n1` [Example 196, N-(2,6-difluorophenyl)-3-(7-fluoro-3-{2-[(2-(methyloxy)-4-{4-[4-(methylsulfonyl)-1-piperazinyl]-1-piperidinyl}phenyl)amino]-4-pyrimidinyl}imidazo[1,2-a]pyridin-2-yl)benzamide], the IC50 in assay [1] is below 100 nM; in the assay on COLO205 (colon) it was 250 to 1000 nM; in assay [2], below 250 nM; in assay [3], below 100 nM.
On to `CCCN1CCN(c2ccc(Nc3nccc(-c4c(-c5ccc(OCC)c(C(=O)Nc6c(F)cccc6F)c5)nc5ccccn45)n3)c(OC)c2)CC1` [Example 178, N-(2,6-difluorophenyl)-2-(ethyloxy)-5-[3-(2-{[2-(methyloxy)-4-(4-propyl-1-piperazinyl)phenyl]amino}-4-pyrimidinyl)imidazo[1,2-a]pyridin-2-yl]benzamide], for which the half-inhibitory concentration (IC50) in assay [1] was below 100 nM; with COLO205 (colon) it was 250 to 1000 nM; in assay [2], below 250 nM; in assay [3], below 100 nM.
On to `CCOc1cc(N2CCC(N3CCN(S(C)(=O)=O)CC3)CC2)ccc1Nc1nccc(-c2c(-c3ccc(OC)c(C(=O)Nc4c(F)cccc4F)c3)nc3ccccn23)n1` [Example 223, N-(2,6-difluorophenyl)-5-(3-{2-[(2-(ethyloxy)-4-{4-[4-(methylsulfonyl)-1-piperazinyl]-1-piperidinyl}phenyl)amino]-4-pyrimidinyl}imidazo[1,2-a]pyridin-2-yl)-2-(methyloxy)benzamide], for which the IC50 was below 100 nM in assay [1], below 250 nM with COLO205 (colon), below 250 nM in assay [2] and below 100 nM in assay [3].
`COc1cc(N2CCC(N3CCN(S(C)(=O)=O)CC3)CC2)c(C)cc1Nc1nccc(-c2c(-c3cccc(C(=O)Nc4c(F)cccc4F)c3)nc3ccccn23)n1` [Example 245, N-(2,6-difluorophenyl)-3-(3-{2-[(5-methyl-2-(methyloxy)-4-{4-[4-(methylsulfonyl)-1-piperazinyl]-1-piperidinyl}phenyl)amino]-4-pyrimidinyl}imidazo[1,2-a]pyridin-2-yl)benzamide]: the IC50 in assay [1] is below 100 nM; in the assay on COLO205 (colon), 250 to 1000 nM; in assay [2] it was below 250 nM; in assay [3], below 100 nM.
Take `COc1cc(N2CCC(C3CCN(CCS(C)(=O)=O)CC3)CC2)ccc1Nc1nccc(-c2c(-c3cccc(C(=O)Nc4c(F)cccc4F)c3)nc3ccccn23)n1` [Example 97, N-(2,6-difluorophenyl)-3-(3-{2-[(2-(methyloxy)-4-{1′-[2-(methylsulfonyl)ethyl]-4,4′-bipiperidin-1-yl}phenyl)amino]-4-pyrimidinyl}imidazo[1,2-a]pyridin-2-yl)benzamide]: the IC50 is below 100 nM in assay [1], 250 to 1000 nM with COLO205 (colon), 250 to 1000 nM in assay [2] and below 100 nM in assay [3].
Regarding `CCOc1cc(N2CCC(N3CCN(S(C)(=O)=O)CC3)CC2)c(CC)cc1Nc1nccc(-c2c(-c3ccc(OC)c(C(=O)Nc4c(F)cccc4F)c3)nc3ccccn23)n1` [Example 204, N-(2,6-difluorophenyl)-5-(3-{2-[(5-ethyl-2-(ethyloxy)-4-{4-[4-(methylsulfonyl)-1-piperazinyl]-1-piperidinyl]phenyl)amino]-4-pyrimidinyl}imidazo[1,2-a]pyridin-2-yl)-2-(methyloxy)benzamide], the IC50 is below 100 nM in assay [1], below 250 nM in the assay with COLO205 (colon), below 250 nM in assay [2] and below 100 nM in assay [3].
For the compound `COc1cc(N2CCN(CCS(C)(=O)=O)CC2)c(C)cc1Nc1nccc(-c2c(-c3ccc(OC)c(C(=O)Nc4c(F)cccc4F)c3)nc3ccccn23)n1` [Example 149, N-(2,6-difluorophenyl)-5-(3-{2-[(5-methyl-2-(methyloxy)-4-{4-[2-(methylsulfonyl)ethyl]-1-piperazinyl}phenyl)amino]-4-pyrimidinyl}imidazo[1,2-a]pyridin-2-yl)-2-(methyloxy)benzamide], the IC50 in assay [1] is below 100 nM; with COLO205 (colon), below 250 nM; in assay [2], below 250 nM; in assay [3], below 100 nM.
In the case of `CCOc1ccc(-c2nc3ccccn3c2-c2ccnc(Nc3cc(CC)c(N4CCN(CCS(C)(=O)=O)CC4)cc3OC)n2)cc1C(=O)Nc1c(F)cccc1F` [Example 235, N-(2,6-difluorophenyl)-5-(3-{2-[(5-ethyl-2-(methyloxy)-4-{4-[2-(methylsulfonyl)ethyl]-1-piperazinyl}phenyl)amino]-4-pyrimidinyl}imidazo[1,2-a]pyridin-2-yl)-2-(ethyloxy)benzamide], the IC50 was below 100 nM in assay [1], below 250 nM in the assay on COLO205 (colon), below 250 nM in assay [2] and below 100 nM in assay [3].
As for `COc1cc(C2CCN(CCS(C)(=O)=O)CC2)c(C)cc1Nc1nccc(-c2c(-c3ccc(OC)c(C(=O)Nc4c(F)cccc4F)c3)nc3ccccn23)n1` [Example 163, N-(2,6-difluorophenyl)-5-(3-{2-[(5-methyl-2-(methyloxy)-4-{1-[2-(methylsulfonyl)ethyl]-4-piperidinyl}phenyl)amino]-4-pyrimidinyl}imidazo[1,2-a]pyridin-2-yl)-2-(methyloxy)benzamide], the 50% inhibitory concentration (IC50) in assay [1] is below 100 nM; with COLO205 (colon), 250 to 1000 nM; in assay [2], below 250 nM; in assay [3], below 100 nM.

(Values after patent US20100216779A1 (GLAXOSMITHKLINE LLC, priority 2007, published 2010).)
